The values that follow come from patent US11806317B2, “Composition capable of promoting testosterone secretion and use thereof” (TCI CO., LTD, priority 2017, dated 2023).

Structures are written as SMILES.

The assay relates to mouse Leydig cells (TM3 cells, ATCC CRL1714). The assay is described as follows: Test of effects of plant extracts or combinations of components on testosterone secretion (testosterone ELISA of culture supernatant). It is filed as cell-based. The conditions noted are these: 24 hours, control 100%. The procedure: 500 μl of the cell culture medium was added to each well of a 24-well plate to have 2×10^4 TM3 cells per well, and cultured at 37° C. for 24 hours. After the cells were adhered, the original medium was removed, and 500 μl of the aforementioned fresh cell culture medium was added.
The samples were then divided into two groups, of which group A was the control group, and no plant extracts or other test components were added. Group B was the test group. […] After that, the condition of the amount of testosterone secretion was analyzed. The doses shown in the tables are the doses of the single extract, or the combination of the extracts.
First, 50 μl of the supernatant of the culture medium after the reaction of each of the above groups was taken out, and the testosterone ELISA test kit (USCN, Cat# CEA458Ge) was used to detect the testosterone concentration. The detected values were then analyzed by Microsoft Excel software using Student's t-test to determine whether there is statistical significance between the two samples (* indicates p-value <0.05; ** indicates p-value <0.01; *** indicates p-value <0.001).
(In general: In an ELISA, binding on a coated surface is turned into a signal by an enzyme label.)

Setting [1] is: dose 0.125 mg/ml (single extract/component or 1:1 combination).
Setting [2] is: dose 0.25 mg/ml (single extract/component or 1:1 combination).

`CC1=C(/C=C/C(C)=C/C=C/C(C)=C/C=C/C=C(C)/C=C/C=C(C)/C=C/C2=C(C)CCCC2(C)C)C(C)(C)CCC1` [beta carotene]: the “Testosterone secretion relative to control” value is given as 66.21% (dose 0.03125 mg/ml (single extract/component or 1:1 combination)), 103.79% under setting [1] and 111.42% under setting [2].

Consider `CC(C)=CCC/C(C)=C/C=C/C(C)=C/C=C/C(C)=C/C=C/C=C(C)/C=C/C=C(C)/C=C/C=C(\C)CCC=C(C)C` [lycopene], for which the “Testosterone secretion relative to control” value by setting is: under setting [1], 99.94%; under setting [2], 104.02%.
